We go through 9 compounds from US8163804B2 (priority 2005, dated 2012).

Data set [1] deals with Small Brown Planthopper (Laodelphax striatellus). Nature of the data set: Control test on small brown planthopper, nursery box application of paddy rice, number of parasitic insects after 40 and 60 days. In kind it is in vivo. As for the experimental part: (§1) Control Test on Small Brown Planthopper (Laodelphax striatellus) and Rice Leafroller (Cnaphalocrocis medinalis) on Nursery Box Application of Paddy Rice
(§2) Rice (cultivar: Nihonbare) cultured in a nursery box was treated with 50 g of a granule formulation per box, and then transplanted to the rice field. For the control effect against Laodelphax striatellus, the number of parasitic insects was examined for 30 stumps per plot after 40 days and 60 days from the transplantation. In addition, for the control effect against Cnaphalocrocis medinalis, the number of infected leaves was examined for 100 stumps per plot after 50 days from the transplantation, and the infected leaf rate was calculated. In the Table, gai represents the amount of active ingredients (g).

Data set [2] relates to Rice Leafroller (Cnaphalocrocis medinalis). Nature of the data set: Control test on rice leafroller, nursery box application of paddy rice, infected leaf rate after 50 days. In kind it is in vivo. The conditions noted are these: 50 days after transplantation. How it is done:
as §1, §2

Data set [3] relates to Rice Blast (Pyricularia oryzae). The data set is classed as in vivo. As to conditions: in vivo.
In data set [4] the test system is Rice Striped Stem Borer (Chilo suppressalis). The conditions noted are these: 5 gai/box.
Data set [5] deals with Common Straight Swift Butterfly (Parnara guttata). The data set is described as follows: Control test on common straight swift butterfly of paddy rice, powder spray, number of insects after 20 days (Test Example 8). The data set is classed as in vivo. As to conditions: 20 days after spraying.
In data set [6] the test system is Rice Blast (Pyricularia oryzae). In kind it is in vivo. The conditions noted are these: panicle blast, 30 days after spraying.
The test system of data set [7] is Green Peach Aphid (Myzus persicae). The data set is classed as in vivo. As to conditions: 3 ppm, foliar spray on eggplant, 5 days after spraying.
The subject of data set [8] is Resistant Cotton Melon Aphid (Aphis gossypii). In kind it is in vivo. As to conditions: 3 ppm, foliar spray on cucumber, 5 days after spraying.
For data set [9], the system named is Small Brown Planthopper (Laodelphax striatellus). Nature of the data set: Insecticidal test on small brown planthopper, sprayed rice seedlings, mortality after 6 days. As to conditions: 3 ppm, sprayed rice seedlings, 6 days after treatment. The data set is classed as in vivo. How it is done:
Insecticidal Test on Small Brown Planthopper (Laodelphax striatellus)
A liquid chemical which was diluted and prepared to the prescribed concentration was sprayed on rice seedlings (cultivar: koshihikari), air-dried, and then 10 three-stage insects of Laodelphax striatellus were put into a glass test tube having a diameter of 3 cm and a height of 10 cm along with the seedlings. The test tube was cotton plugged. After 6 days from the treatment, the number of surviving insects was examined and the mortality was calculated (two replications of 10 insects per plot).

For data set [10], the system named is 2-spotted Spider Mite (Tetranychus urticae). Nature of the data set: Insecticidal test on 2-spotted spider mite, kidney bean leaf disc with eggs, hatchability of larvae after 6 days. In kind it is in vivo. The conditions noted are these: 50 ppm; 6 days after spraying. As for the experimental part:
Insecticidal Test on 2-spotted Spider Mite (Tetranychus urticae)
A plastic cup having a diameter of 8 cm was filled with water and covered by a lid with a hole having a diameter of 1 cm. Absorbent cotton was put on the top of the lid and dropped into water from the lid such that the absorbent cotton was always in a wet state due to a capillary phenomenon. A leaf disc having a diameter of 2 cm was prepared with primary leaves of kidney beans (cultivar: Green top) and placed on the aforementioned absorbent cotton. 4 adult female insects of Tetranychus urticae were inoculated thereon. Next day, the adult female insects were removed, and then the number of insect egg was examined. A liquid chemical which was prepared to the prescribed concentration was sprayed by using a vertical sprayer. After spraying, the resulting cup was allowed to stand in an isothermal chamber maintained at 25 degree centigrade. After 6 days from spraying, the number of hatched larvae that survived on the leaf disc was examined and the hatchability of larvae was calculated (two replications of one concentration per chemical).

In data set [11] the test system is Tiger Moth (Trichoplusia ni). The data set is described as follows: Insecticidal test on tiger moth, cabbage leaf dip, mortality after 6 days. The data set is classed as in vivo. As to conditions: 0.5 ppm; 6 days after treatment. As for the experimental part:
Insecticidal Test on Tiger Moth (Trichoplusia ni)
Cut leaves of cabbages (cultivar: shiki-kaku) were immersed in a liquid chemical which was diluted and prepared to the prescribed concentration for 30 seconds, air-dried, and then put into a plastic vessel having a diameter of 9 cm. Each of 10 second-stage insects of Trichoplusia ni was inoculated and the resulting vessel was allowed to stand in an isothermal chamber maintained at 25 degree centigrade. After 6 days from the treatment, the number of surviving insects was examined and the mortality was calculated (two replications of 10 insects per plot).

Like-named read-outs stand apart in the source and are kept apart here.

Take `Cc1cc(C(F)(C(F)(F)F)C(F)(F)F)cc(C)c1NC(=O)c1cccc(N(C)C(=O)c2cccnc2F)c1F` [Compound 1246]: the “Laodelphax striatellus Number of parasitic insects/30 stumps” value (“Laodelphax striatellus Number” for short) is recorded as 77 insects/30 stumps in data set [1] (5 gai/box, 40 days) and 137 insects/30 stumps in [1] (5 gai/box, 60 days). In addition, the “Cnaphalocrocis medinalis Infected leaf rate (%)” value in [2] (5 gai/box) was found to be 0.28%. Further, the “Pyricularia oryzae Control value” in [3] was found to be 0. In addition, the “Chilo suppressalis Mortality (%)” value in data set [4] was 95%.
Take `CCOC(=O)CCN(SN(C)C(=O)Oc1cccc2c1OC(C)(C)C2)C(C)C` [benfuracarb]: the “Laodelphax striatellus Number” value in [1] (2.5 gai/box, 40 days) amounted to 12 insects/30 stumps; in data set [1] (2.5 gai/box, 60 days) it was 31 insects/30 stumps. Besides, in data set [2] (2.5 gai/box), the “Cnaphalocrocis medinalis Infected leaf rate (%)” value is 1.28%.
In the case of `O=[N+]([O-])NC1=NCCN1Cc1ccc(Cl)nc1` [imidacloprid], the “Laodelphax striatellus Number” value is 0 insects/30 stumps in data set [1] (1 gai/box, 40 days) and 9 insects/30 stumps in data set [1] (1 gai/box, 60 days). Also, the “Cnaphalocrocis medinalis Infected leaf rate (%)” value in [2] (1 gai/box) is 1.77%.
Turning to `C[C@H]1O[C@H](O[C@H]2[C@H](O)[C@@H](O)[C@@H](O)[C@H](O)[C@@H]2O)[C@@H](N)C[C@@H]1NC(=N)C(=O)O` [kasugamycin], in data set [5] (12 gai/10a), the “Number (insects/100 stumps)” value is recorded as 162 insects/100 stumps. Moreover, in data set [6] (12 gai/10a), the “Pyricularia oryzae Control value” came to 91.
As to `O=C1OCc2c(Cl)c(Cl)c(Cl)c(Cl)c21` [fthalide], the “Number (insects/100 stumps)” value in [5] (100 gai/10a) amounted to 150 insects/100 stumps. For the same compound, the “Pyricularia oryzae Control value” in data set [6] (100 gai/10a) is 90.
Turning to `Cc1cc(C(F)(C(F)(F)F)C(F)(F)F)cc(C)c1NC(=O)c1cccc(NC(=O)c2cccnc2Cl)c1F` [compound 639], the figures for the “Control rate (%)” value in [7] and in data set [8] were 10% and 12%, respectively. Besides, the “Mortality (%)” value in [9] is reported as 0%; in data set [11], 80%. In addition, the “Hatchability of larvae (%)” value in data set [10] amounted to 82%. The “Laodelphax striatellus Number” value is on record as 65 insects/30 stumps in [1] (5 gai/box, 40 days) and 120 insects/30 stumps in [1] (5 gai/box, 60 days). The “Cnaphalocrocis medinalis Infected leaf rate (%)” value in data set [2] (5 gai/box) is listed as 0.39%. The “Pyricularia oryzae Control value” in data set [3] is reported as 3. In [4], the “Chilo suppressalis Mortality (%)” value is 90%.
Turning to `Cc1cc(C(F)(C(F)(F)F)C(F)(F)F)cc(C)c1NC(=O)c1cccc(N(C)C(=O)c2ccc(Cl)nc2)c1F` [Compound 1247], the “Control rate (%)” value in data set [7] is listed as 6%; in data set [8], 10%. Moreover, the results for the “Mortality (%)” value in [9] and in data set [11] were 5% and 65%, respectively. Also, in data set [10], the “Hatchability of larvae (%)” value stood at 74%. Moreover, the “Laodelphax striatellus Number” value in [1] (5 gai/box, 40 days) came out at 69 insects/30 stumps; in data set [1] (5 gai/box, 60 days), 121 insects/30 stumps. In addition, the “Cnaphalocrocis medinalis Infected leaf rate (%)” value in [2] (5 gai/box) came out at 0.25%.
Consider `Cc1cc(C(F)(C(F)(F)F)C(F)(F)F)cc(C)c1NC(=O)c1cccc(N(C)C(=O)c2cccnc2)c1F` [Compound 1244], for which the “Laodelphax striatellus Number” value is on record as 72 insects/30 stumps in data set [1] (5 gai/box, 40 days) and 132 insects/30 stumps in data set [1] (5 gai/box, 60 days). In addition, the “Cnaphalocrocis medinalis Infected leaf rate (%)” value in [2] (5 gai/box) stood at 0.25%.
Regarding `CC(Oc1ccc(Cl)cc1Cl)C(=O)NC(C)(C#N)C(C)C` (centres unmarked) [fenoxanil], the “Number (insects/100 stumps)” value in data set [5] (40 gai/10a) was found to be 155 insects/100 stumps. Also, the “Pyricularia oryzae Control value” in [6] (40 gai/10a) was 88.
